The text below walks through data of patent publication US7074789B2, “Kinase inhibitors” (Amgen Inc., priority 1999, dated 2006).

Where two headings read alike, the source gives them in different places. A value given as a limit tells only on which side of the number the result lay.

Holding throughout (format): biochemical
The target in one assay is T1, Lck (Homo sapiens, UniProt P06239).
T1 construct: Kinases are expressed as either kinase domains or full length constructs; made in house
Put plainly: Kinase inhibition assay (33P transfer), Lck. To be noted: read-out: Lck-1. The method in brief:
(§1)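 Filterless plate radiometric format: immobilized poly(Glu,Tyr) 4:1 or poly(Arg,Ser) 3:1, 33P-labelled ATP, tagged recombinant kinase (some with regulatory partners). Incorporated label counted after phosphoric acid wash.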

In another assay the target is T2, Zap-70 (Homo sapiens, UniProt P43403).
T2 construct: Kinases are expressed as either kinase domains or full length constructs; made in house
T2 sequence (P43403 1-619): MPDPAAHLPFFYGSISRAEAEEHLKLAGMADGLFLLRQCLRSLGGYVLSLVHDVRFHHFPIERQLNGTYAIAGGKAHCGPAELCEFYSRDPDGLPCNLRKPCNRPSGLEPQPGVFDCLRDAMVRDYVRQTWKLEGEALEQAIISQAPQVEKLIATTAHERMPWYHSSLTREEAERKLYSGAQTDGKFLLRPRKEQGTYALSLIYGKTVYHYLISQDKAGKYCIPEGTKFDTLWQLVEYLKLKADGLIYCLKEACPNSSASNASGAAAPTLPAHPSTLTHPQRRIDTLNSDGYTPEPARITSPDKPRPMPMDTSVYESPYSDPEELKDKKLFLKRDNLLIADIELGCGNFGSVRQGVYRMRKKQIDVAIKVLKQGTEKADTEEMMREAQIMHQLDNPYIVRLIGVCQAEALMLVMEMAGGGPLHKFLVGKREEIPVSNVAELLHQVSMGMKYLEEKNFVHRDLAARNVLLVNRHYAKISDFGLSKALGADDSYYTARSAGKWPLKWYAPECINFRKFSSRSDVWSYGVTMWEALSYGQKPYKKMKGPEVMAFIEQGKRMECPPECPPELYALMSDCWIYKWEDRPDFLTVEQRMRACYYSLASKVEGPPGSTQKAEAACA
Put plainly: Kinase inhibition assay (33P transfer), Zap-70. To be noted: read-out: Zap-1. The method in brief: as §1

The target of another assay is T3, Itk (Homo sapiens, UniProt Q08881).
T3 construct: Kinases are expressed as either kinase domains or full length constructs; made in house
T3 sequence (Q08881 1-620): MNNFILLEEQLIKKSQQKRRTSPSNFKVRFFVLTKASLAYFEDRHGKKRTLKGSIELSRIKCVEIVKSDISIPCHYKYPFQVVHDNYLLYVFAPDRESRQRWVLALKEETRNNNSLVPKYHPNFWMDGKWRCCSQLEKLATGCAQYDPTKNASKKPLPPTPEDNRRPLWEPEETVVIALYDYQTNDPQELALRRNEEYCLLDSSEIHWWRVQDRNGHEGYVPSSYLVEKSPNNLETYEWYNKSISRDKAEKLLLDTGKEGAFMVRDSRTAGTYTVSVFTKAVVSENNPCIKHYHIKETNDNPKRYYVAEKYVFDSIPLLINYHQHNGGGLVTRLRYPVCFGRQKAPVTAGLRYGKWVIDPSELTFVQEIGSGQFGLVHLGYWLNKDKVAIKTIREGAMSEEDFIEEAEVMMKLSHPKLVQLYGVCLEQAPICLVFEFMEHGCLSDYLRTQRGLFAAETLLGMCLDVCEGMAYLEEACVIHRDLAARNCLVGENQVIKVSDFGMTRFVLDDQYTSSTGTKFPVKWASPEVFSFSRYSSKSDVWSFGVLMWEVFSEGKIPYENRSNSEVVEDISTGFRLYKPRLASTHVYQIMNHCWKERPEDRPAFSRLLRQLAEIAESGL
Put plainly: Kinase inhibition assay (33P transfer), Itk. Conditions: read-out: Itk-1. An outline of the steps: (§2)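 Activity read as 33P incorporation from ATP into poly(Glu,Tyr) 4:1 or poly(Arg,Ser) 3:1 substrate bound to microtiter plates, measured by scintillation after acid washing. Enzymes were affinity-purified GST or polyHis fusions (kinase domain or full length) from E. coli or baculovirus; IC50 = 50% reduction in labelled phosphate.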

Another assay deals with T4, EGFR (Homo sapiens, UniProt P00533).
T4 construct: Kinases are expressed as either kinase domains or full length constructs; made in house
Put plainly: Kinase inhibition assay (33P transfer), EGFR. Conditions: Table 2, kinase inhibition class; read-out: EGFR-1. The method in brief: as §2

In another assay the target is T5, Kdr (Homo sapiens, UniProt P35968).
T5 construct: Kinases are expressed as either kinase domains or full length constructs; made in house
Put plainly: Kinase inhibition assay (33P transfer), Kdr. Conditions: read-out: KDR-1. The method in brief: as §1

For another assay, the target named is T6, Tek (Homo sapiens, UniProt Q02763).
T6 construct: Kinases are expressed as either kinase domains or full length constructs; made in house
Nature of the assay: Kinase inhibition assay (33P transfer), Tek. Conditions: read-out: Tek-1. The text has this:
The inhibitor compounds described herein are screened in the following manner. Kinases suitable for use in the following protocol to determine kinase activity of the compounds described herein include, -but are not limited to: Lck, Lyn, Src, Fyn, Syk, Zap-70, Itk, Tec, Btk, EGFR, ErbB2, Kdr, Flt-1, Flt-3, Tek, c-Met, InsR, and AKT.
Kinases are expressed as either kinase domains or full length constructs fused to glutathione S-transferase (GST) or polyHistidine tagged fusion proteins in either E. colior Baculovirus-High Five expression systems. They are purified to near homogeneity by affinity chromatography essentially as previously described (Lehr et al., 1996; Gish et al., 1995). In some instances, kinases are co-expressed or mixed with purified or partially purified regulatory polypeptides prior to measurement of activity.
Kinase activity and inhibition are measured essentially by established protocols (Braunwalder et al., 1996). Briefly, The transfer of ^33PO4 from ATP to the synthetic substrates poly(Glu, Tyr) 4:1 or poly(Arg, Ser) 3:1 attached to the bioactive surface of microtiter plates serves as the basis to evaluate enzyme activity. After an incubation period, the amount of phosphate transferred is measured by first washing the plate with 0.5% phosphoric acid, adding liquid scintillant, and then counting in a liquid scintillation detector. The IC50 is determined by the concentration of compound that causes a 50% reduction in the amount of […] incorporated onto the substrate bound to the plate.

For another assay, the target named is T7, c-Met (Homo sapiens, UniProt P08581).
T7 construct: Kinases are expressed as either kinase domains or full length constructs; made in house
Put plainly: Kinase inhibition assay (33P transfer), c-Met. Conditions: Table 2, kinase inhibition class; read-out: Met-1. An outline of the steps:
as §2

In a further assay the target is T8, AKT (Homo sapiens, UniProt Q9Y243).
T8 construct: Kinases are expressed as either kinase domains or full length constructs; made in house
Nature of the assay: Kinase inhibition assay (33P transfer), AKT. To be noted: Table 2, kinase inhibition class; read-out: AKT3-1. The method in brief:
as §1

T5 sequence (P35968 20-1356, species assumed): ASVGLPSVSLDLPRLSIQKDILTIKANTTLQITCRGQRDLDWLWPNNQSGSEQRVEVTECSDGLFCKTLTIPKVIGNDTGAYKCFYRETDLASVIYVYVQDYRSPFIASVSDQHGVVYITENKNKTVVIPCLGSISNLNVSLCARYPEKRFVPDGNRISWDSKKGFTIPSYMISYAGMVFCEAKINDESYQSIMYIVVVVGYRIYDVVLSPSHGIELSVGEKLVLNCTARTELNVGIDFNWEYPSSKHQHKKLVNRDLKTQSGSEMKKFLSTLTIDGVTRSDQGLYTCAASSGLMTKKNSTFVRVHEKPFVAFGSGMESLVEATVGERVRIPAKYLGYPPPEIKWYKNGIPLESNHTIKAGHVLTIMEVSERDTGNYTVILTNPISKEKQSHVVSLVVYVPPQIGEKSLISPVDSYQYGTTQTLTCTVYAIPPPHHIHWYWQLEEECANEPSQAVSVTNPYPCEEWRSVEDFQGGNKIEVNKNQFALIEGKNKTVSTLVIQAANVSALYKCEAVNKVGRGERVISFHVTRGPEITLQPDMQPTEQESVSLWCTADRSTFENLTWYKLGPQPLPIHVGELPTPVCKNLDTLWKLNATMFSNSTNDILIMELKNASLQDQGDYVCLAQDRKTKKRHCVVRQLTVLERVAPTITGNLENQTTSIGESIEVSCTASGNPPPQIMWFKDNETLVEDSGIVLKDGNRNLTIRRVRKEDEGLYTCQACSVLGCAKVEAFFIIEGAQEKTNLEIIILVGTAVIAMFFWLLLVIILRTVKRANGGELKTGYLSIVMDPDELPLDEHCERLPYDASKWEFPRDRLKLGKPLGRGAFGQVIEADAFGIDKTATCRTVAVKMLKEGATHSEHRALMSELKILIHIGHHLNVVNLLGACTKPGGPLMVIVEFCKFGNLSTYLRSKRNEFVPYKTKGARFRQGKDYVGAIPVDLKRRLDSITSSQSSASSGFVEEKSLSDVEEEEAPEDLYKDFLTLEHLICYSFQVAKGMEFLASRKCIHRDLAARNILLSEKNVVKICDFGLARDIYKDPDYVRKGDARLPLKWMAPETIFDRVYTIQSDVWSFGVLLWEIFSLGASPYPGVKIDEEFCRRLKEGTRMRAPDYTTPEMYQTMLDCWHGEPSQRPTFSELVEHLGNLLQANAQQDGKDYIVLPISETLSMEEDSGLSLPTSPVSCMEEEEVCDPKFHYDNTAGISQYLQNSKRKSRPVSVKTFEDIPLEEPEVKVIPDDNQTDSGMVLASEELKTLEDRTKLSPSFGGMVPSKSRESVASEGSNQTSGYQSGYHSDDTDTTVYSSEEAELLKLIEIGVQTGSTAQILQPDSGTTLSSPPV
T7 sequence (P08581 25-1390): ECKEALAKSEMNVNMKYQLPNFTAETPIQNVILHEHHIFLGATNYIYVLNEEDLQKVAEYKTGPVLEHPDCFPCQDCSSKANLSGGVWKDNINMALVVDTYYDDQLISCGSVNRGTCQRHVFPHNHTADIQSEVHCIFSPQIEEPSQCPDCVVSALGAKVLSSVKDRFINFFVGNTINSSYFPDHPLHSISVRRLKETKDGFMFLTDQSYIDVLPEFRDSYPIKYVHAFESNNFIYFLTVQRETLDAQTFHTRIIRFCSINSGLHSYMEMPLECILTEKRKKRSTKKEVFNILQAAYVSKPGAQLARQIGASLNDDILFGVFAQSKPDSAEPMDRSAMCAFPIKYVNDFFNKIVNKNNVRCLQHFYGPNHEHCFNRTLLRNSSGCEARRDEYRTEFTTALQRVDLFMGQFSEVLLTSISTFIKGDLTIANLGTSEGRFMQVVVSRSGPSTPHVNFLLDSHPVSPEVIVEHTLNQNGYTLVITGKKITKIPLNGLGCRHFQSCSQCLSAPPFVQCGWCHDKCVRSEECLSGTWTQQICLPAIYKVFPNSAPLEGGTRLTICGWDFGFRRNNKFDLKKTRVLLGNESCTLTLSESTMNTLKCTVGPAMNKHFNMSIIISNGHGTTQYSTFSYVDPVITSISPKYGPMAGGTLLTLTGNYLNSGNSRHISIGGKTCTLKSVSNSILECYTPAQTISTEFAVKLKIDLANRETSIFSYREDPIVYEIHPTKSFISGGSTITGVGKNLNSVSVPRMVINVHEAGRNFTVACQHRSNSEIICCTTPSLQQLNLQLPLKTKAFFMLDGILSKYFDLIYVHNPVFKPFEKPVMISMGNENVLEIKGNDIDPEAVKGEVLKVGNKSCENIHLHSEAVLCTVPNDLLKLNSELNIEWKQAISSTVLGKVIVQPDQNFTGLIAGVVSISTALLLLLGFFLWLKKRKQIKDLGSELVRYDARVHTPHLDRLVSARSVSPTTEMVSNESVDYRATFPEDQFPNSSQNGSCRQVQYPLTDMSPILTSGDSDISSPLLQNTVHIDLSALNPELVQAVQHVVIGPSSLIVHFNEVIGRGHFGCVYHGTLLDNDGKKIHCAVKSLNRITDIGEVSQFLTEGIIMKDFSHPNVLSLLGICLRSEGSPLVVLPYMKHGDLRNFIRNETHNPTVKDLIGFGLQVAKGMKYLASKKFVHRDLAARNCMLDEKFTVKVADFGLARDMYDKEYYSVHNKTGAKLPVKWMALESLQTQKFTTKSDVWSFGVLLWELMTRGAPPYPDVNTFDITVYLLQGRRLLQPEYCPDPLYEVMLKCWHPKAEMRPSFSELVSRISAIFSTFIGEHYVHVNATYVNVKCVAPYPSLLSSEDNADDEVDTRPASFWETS
T1 sequence (P06239 whole entry, species assumed, the tested form may be a part): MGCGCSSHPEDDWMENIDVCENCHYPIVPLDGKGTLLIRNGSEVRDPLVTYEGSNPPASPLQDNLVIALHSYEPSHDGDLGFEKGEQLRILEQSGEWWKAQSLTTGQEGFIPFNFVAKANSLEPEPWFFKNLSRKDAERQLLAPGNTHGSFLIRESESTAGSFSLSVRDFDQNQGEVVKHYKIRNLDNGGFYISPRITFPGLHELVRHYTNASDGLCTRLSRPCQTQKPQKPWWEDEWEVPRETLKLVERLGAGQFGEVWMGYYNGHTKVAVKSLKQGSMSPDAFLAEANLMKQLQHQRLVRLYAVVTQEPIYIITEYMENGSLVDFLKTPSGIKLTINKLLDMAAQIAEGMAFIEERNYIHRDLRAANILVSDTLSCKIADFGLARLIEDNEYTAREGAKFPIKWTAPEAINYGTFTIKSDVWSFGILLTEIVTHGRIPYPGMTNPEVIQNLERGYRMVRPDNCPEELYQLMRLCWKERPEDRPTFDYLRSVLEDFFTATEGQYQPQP
T6 sequence (Q02763 23-1124, species assumed): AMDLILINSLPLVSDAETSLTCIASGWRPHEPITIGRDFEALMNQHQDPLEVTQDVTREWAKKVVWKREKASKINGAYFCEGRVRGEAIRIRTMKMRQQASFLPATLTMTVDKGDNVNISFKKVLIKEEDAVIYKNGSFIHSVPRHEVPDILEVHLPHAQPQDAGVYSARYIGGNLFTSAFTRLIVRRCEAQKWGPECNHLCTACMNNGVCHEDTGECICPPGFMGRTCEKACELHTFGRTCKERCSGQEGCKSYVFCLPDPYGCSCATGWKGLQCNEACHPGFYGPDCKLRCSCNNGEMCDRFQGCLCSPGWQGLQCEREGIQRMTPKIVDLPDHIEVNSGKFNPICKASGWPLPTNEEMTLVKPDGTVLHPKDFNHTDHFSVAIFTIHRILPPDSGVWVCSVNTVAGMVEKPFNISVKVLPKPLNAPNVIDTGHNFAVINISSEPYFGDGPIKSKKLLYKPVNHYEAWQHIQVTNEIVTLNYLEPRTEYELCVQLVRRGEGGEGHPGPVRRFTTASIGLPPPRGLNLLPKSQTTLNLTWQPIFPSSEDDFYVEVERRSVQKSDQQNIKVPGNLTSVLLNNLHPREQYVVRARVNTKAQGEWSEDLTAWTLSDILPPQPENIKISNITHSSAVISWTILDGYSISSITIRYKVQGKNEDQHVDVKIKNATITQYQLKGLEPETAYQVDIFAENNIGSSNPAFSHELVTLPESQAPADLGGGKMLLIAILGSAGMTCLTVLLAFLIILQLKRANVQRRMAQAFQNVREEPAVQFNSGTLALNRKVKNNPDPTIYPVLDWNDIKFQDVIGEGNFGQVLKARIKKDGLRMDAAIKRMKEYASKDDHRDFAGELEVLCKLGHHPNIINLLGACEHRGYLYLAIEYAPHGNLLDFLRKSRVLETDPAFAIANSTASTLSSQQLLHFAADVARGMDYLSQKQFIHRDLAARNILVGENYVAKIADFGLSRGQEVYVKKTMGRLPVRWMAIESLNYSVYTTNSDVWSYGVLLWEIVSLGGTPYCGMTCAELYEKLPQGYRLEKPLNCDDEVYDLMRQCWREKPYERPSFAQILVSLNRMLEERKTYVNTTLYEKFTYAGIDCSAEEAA
T8 sequence (Q9Y243 whole entry, the tested form may be a part): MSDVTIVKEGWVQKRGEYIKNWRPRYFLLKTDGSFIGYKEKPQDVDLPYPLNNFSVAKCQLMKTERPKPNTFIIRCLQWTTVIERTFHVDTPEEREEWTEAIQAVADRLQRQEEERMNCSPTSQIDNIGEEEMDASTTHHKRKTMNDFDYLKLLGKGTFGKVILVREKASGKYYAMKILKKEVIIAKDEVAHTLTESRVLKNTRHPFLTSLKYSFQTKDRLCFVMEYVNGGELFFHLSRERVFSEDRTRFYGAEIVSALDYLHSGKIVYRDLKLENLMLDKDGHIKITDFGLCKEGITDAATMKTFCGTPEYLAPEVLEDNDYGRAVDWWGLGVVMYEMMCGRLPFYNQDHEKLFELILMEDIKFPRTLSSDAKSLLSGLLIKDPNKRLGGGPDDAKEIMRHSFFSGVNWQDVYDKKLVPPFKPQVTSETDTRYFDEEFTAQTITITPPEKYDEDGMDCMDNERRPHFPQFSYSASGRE

For the compound `COc1cc(Nc2ncnc(-n3c(N[C@H](CO)c4ccccc4)nc4ccccc43)n2)cc(OC)c1OC` [Compound 1035], the IC50 on Lck is over 8.76 µM; on Zap-70 it was over 8.76 µM; at Itk, over 8.76 µM; on EGFR, over 8.76 µM; on Kdr, under 779 nM; on Tek, over 8.76 µM. In addition, the IC50 at c-Met and on AKT was over 8.76 µM throughout.

Turning to `O=c1[nH]c2ccccc2n1-c1ncnc(Nc2ccc(C(F)(F)F)cc2)n1` [Compound 505], the IC50 on Lck is over 12.1 µM; at Zap-70 it was 9.4 to 12.1 µM; at Itk, over 12.1 µM; at EGFR, over 12.1 µM; at Kdr it was over 12100 nM; at Tek it was 6.45 to 9.4 µM. Besides, the IC50 on c-Met and on AKT was over 12.1 µM each time.

For the compound `COc1cc(Nc2ncnc(-n3c(OCc4ccccn4)nc4ccccc43)n2)cc(OC)c1OC` [Compound 690], the IC50 at Lck is over 9.27 µM; at Zap-70, over 9.27 µM; on Itk, over 9.27 µM; at EGFR, over 9.27 µM; on Kdr it was under 824 nM; at Tek it was over 9.27 µM. For the same compound, the IC50 at c-Met and at AKT was over 9.27 µM each time.

With `COc1cc(Nc2nc3ccccc3n2-c2ncnc(Nc3cc(OC)c(OC)c(OC)c3)n2)cc(OC)c1` [Compound 399], the IC50 was 6.61 to 8.5 µM at Lck (Table 3); over 8.5 µM on Zap-70 (Table 3); over 8.5 µM at Itk (Table 3); over 8.5 µM on EGFR; 755 to 4530 nM at Kdr (Table 3); over 8.5 µM at Tek. Moreover, the IC50 at c-Met was over 8.5 µM; at AKT, 6.61 to 8.5 µM.

As for `COc1cc(OC)nc(Nc2ncnc(-n3c(=O)[nH]c4ccccc43)n2)n1` [Compound 491], the IC50 at Lck is over 12.3 µM; at Zap-70 it was over 12.3 µM; on Itk, over 12.3 µM; on EGFR, over 12.3 µM; on Kdr, 9550 to 12300 nM; at Tek it was 1.09 to 6.55 µM. The IC50 on c-Met and at AKT was over 12.3 µM throughout.

Turning to `O=c1[nH]c2ccccc2n1-c1ncnc(Nc2cccc([N+](=O)[O-])c2)n1` [Compound 467], the IC50 at Lck (Table 3) is over 12.9 µM; on Zap-70 (Table 3), 6.87 to 10 µM; at Itk (Table 3), over 12.9 µM; on EGFR, over 12.9 µM; at Kdr (Table 3) it was 1150 to 6870 nM; on Tek, 6.87 to 10 µM. The IC50 on c-Met and at AKT was over 12.9 µM in each case.

As to `Nc1nc2ccccc2n1-c1ncnc(Nc2ccc3c(c2)OCO3)n1` [Compound 526], the IC50 at Lck was 1.15 to 6.91 µM; on Zap-70 it was 1.15 to 6.91 µM; on Itk, 1.15 to 6.91 µM; on EGFR, 1.15 to 6.91 µM; on Kdr it was under 1150 nM; on Tek, 1.15 to 6.91 µM. The IC50 was 1.15 to 6.91 µM on c-Met and 6.91 to 10.1 µM at AKT.

As for `O=c1[nH]c2ccccc2n1-c1ncnc(Nc2cccc(-c3cnco3)c2)n1` [Compound 418], the IC50 on Lck (Table 3) is 1.08 to 6.46 µM; on Zap-70 (Table 3), over 12.1 µM; at Itk (Table 3) it was 9.42 to 12.1 µM; at EGFR it was 1.08 to 6.46 µM; at Kdr (Table 3), under 1080 nM; at Tek, 9.42 to 12.1 µM. In addition, the IC50 is over 12.1 µM at c-Met and 1.08 to 6.46 µM on AKT.

For the compound `COc1ccc(Nc2ncnc(-n3c(=O)[nH]c4ccccc43)n2)cc1OC` [Compound 494], the IC50 was 6.59 to 9.61 µM at Lck; over 12.4 µM at Zap-70; over 12.4 µM at Itk; 6.59 to 9.61 µM on EGFR; under 1100 nM at Kdr; over 12.4 µM at Tek. Besides, the IC50 on c-Met and at AKT was over 12.4 µM throughout.

As for `COc1cc(Nc2ncnc(-n3ccc4ccc(F)cc43)n2)cc(OC)c1OC` [Compound 464], the IC50 at Lck (Table 3) is 6.07 to 8.85 µM; on Zap-70 (Table 3), over 11.4 µM; at Itk (Table 3) it was over 11.4 µM; on EGFR, over 11.4 µM; at Kdr (Table 3), 1010 to 6070 nM; on Tek, over 11.4 µM. Besides, the IC50 on c-Met and at AKT was over 11.4 µM throughout.

In the case of `Nc1nc2ccccc2n1-c1ncnc(Nc2ccc(-c3cnco3)cc2)n1` [Compound 438], the IC50 was 1.08 to 6.48 µM at Lck (Table 3); 9.45 to 12.1 µM on Zap-70 (Table 3); 1.08 to 6.48 µM on Itk (Table 3); 1.08 to 6.48 µM on EGFR; 1080 to 6480 nM at Kdr (Table 3); 1.08 to 6.48 µM on Tek. For the same compound, the IC50 at c-Met was 1.08 to 6.48 µM; on AKT it was 6.48 to 9.45 µM.

`COc1cc(Nc2ncnc(Nc3nccs3)n2)cc(OC)c1OC` [Compound 442]: the IC50 at Lck (Table 3) is over 12.5 µM; on Zap-70 (Table 3) it was over 12.5 µM; at Itk (Table 3) it was over 12.5 µM; on EGFR it was over 12.5 µM; on Kdr (Table 3), 6660 to 9710 nM; at Tek, over 12.5 µM. The IC50 on c-Met and on AKT was over 12.5 µM in each case.

As to `CC(C)(C)c1cc(Nc2ncnc(Nc3ccc(CC(=O)O)cc3)n2)[nH]n1` [Compound 980], the IC50 is over 12.2 µM on Lck; over 12.2 µM at Zap-70; 9.53 to 12.2 µM at Itk; 1.09 to 6.53 µM at EGFR; over 12200 nM at Kdr; over 12.2 µM on Tek. The values for the IC50 at c-Met and at AKT were 9.53 to 12.2 µM and 1.09 to 6.53 µM, respectively.

On to `O=C(O)Cc1ccc(Nc2ncnc(Nc3cc(-c4ccco4)n[nH]3)n2)cc1` [Compound 984], for which the IC50 at Lck is 1.06 to 6.36 µM; at Zap-70, 9.27 to 11.9 µM; on Itk it was 1.06 to 6.36 µM; on EGFR, under 1.06 µM; on Kdr, under 1060 nM; at Tek, over 11.9 µM. Also, the IC50 at c-Met was 1.06 to 6.36 µM; at AKT it was over 11.9 µM.

For the compound `COc1cc(Nc2ncnc(-n3c(NCc4ccccn4)nc4ccccc43)n2)cc(OCCN2CCOCC2)c1OC` [Compound 507], the IC50 on Lck is 0.685 to 4.11 µM; at Zap-70, over 7.71 µM; on Itk, over 7.71 µM; on EGFR, over 7.71 µM; at Kdr, under 685 nM; on Tek it was 6 to 7.71 µM. The IC50 on c-Met and at AKT was over 7.71 µM throughout.
